Source: PubChem BioAssay AID1963425 (Molecular Pharmacology Branch, DTP, NCI, 2024)
Values belong to the compound of their own block, whether it stands above or below them.

Test system: 323965-272-R-J2-PDC complex spheroid growth, % test/control
Experiment: Anticancer human tumor 323965-272-R-J2-PDC patient-derived pancreatic carcinoma cell line growth inhibition [Asc]
Conditions: for IC50: curve of first compound; for viability, T/C: stronger effect = lower value
Summary of the method: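 Tumor cells were grown as multicellular spheroids with stromal HUVEC and mesenchymal stem cells and treated singly or in combination. Concentrations fell in half-log steps from the clinical Cmax, or from 10 microM where none was known.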

[1] = second compound 0.0316 µM, first compound 0.00316 µM
[2] = second compound 0.0316 µM, first compound 0.01 µM
[3] = second compound 0.0316 µM, first compound 0.0316 µM
[4] = second compound 0.0316 µM, first compound 0.1 µM
[5] = second compound 0.1 µM, first compound 0.00316 µM
[6] = second compound 0.1 µM, first compound 0.01 µM
[7] = second compound 0.1 µM, first compound 0.0316 µM
[8] = second compound 0.1 µM, first compound 0.1 µM
[9] = second compound 0.316 µM, first compound 0.00316 µM
[10] = second compound 0.316 µM, first compound 0.01 µM
[11] = second compound 0.316 µM, first compound 0.0316 µM
[12] = second compound 0.316 µM, first compound 0.1 µM
[13] = second compound 1 µM, first compound 0.00316 µM
[14] = second compound 1 µM, first compound 0.01 µM
[15] = second compound 1 µM, first compound 0.0316 µM
[16] = second compound 1 µM, first compound 0.1 µM
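Further: compound exposure lasted 7 days starting three days after spheroid seeding.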
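Wherever viability, T/C is given: 100% = DMSO vehicle control wells with viability set relative to vehicle.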

IC50 (second compound 0.0316 µM): 166 nM | IC50 (second compound 0.1 µM): 180 nM | IC50 (second compound 0.316 µM): 116 nM | IC50 (second compound 1 µM): 106 nM | IC50 (second compound 3.16 µM): 77.1 nM | IC50 (second compound 10 µM): 36.5 nM
SMILES: COc1c(OCCCN2CCOCC2)ccc2c3n(c(=NC(=O)c4cnc(N)nc4)nc12)CCN3 + Cc1c(S(C)(=O)=O)c(-c2cc(F)cc(N3CCN(c4ccc(NS(=O)(=O)c5ccc(NC(CCN6CCC(C(=O)OCCCP(=O)(O)O)CC6)CSc6ccccc6)c(S(=O)(=O)C(F)(F)F)c5)cc4)CC3)c2)c(-c2ccc(Cl)cc2)n1C(C)C
viability, T/C [1]: 110% | viability, T/C [2]: 97.1% | viability, T/C [3]: 86.4% | viability, T/C [4]: 58.3% | viability, T/C (second compound 0.0316 µM, first compound 0.316 µM): 37.9% | viability, T/C (second compound 0.0316 µM, first compound 1 µM): 24.8% | viability, T/C [5]: 100% | viability, T/C [6]: 99.5% | viability, T/C [7]: 73.8% | viability, T/C [8]: 60.1% | viability, T/C (second compound 0.1 µM, first compound 0.316 µM): 42.4% | viability, T/C (second compound 0.1 µM, first compound 1 µM): 25.8% | viability, T/C [9]: 107% | viability, T/C [10]: 98.9% | viability, T/C [11]: 71.5% | viability, T/C [12]: 49% | viability, T/C (second compound 0.316 µM, first compound 0.316 µM): 42.3% | viability, T/C (second compound 0.316 µM, first compound 1 µM): 23.9% | viability, T/C [13]: 94.1% | viability, T/C [14]: 81.8% | viability, T/C [15]: 74.9% | viability, T/C [16]: 49.9% | viability, T/C (second compound 1 µM, first compound 0.316 µM): 32.4% | viability, T/C (second compound 1 µM, first compound 1 µM): 23.1% | viability, T/C (second compound 3.16 µM, first compound 0.00316 µM): 73.2% | viability, T/C (second compound 3.16 µM, first compound 0.01 µM): 71.5% | viability, T/C (second compound 3.16 µM, first compound 0.0316 µM): 63.2% | viability, T/C (second compound 3.16 µM, first compound 0.1 µM): 46% | viability, T/C (second compound 3.16 µM, first compound 0.316 µM): 29.4% | viability, T/C (second compound 3.16 µM, first compound 1 µM): 21.3% | viability, T/C (second compound 10 µM, first compound 0.00316 µM): 73.2% | viability, T/C (second compound 10 µM, first compound 0.01 µM): 67.7% | viability, T/C (second compound 10 µM, first compound 0.0316 µM): 48.1% | viability, T/C (second compound 10 µM, first compound 0.1 µM): 39.4% | viability, T/C (second compound 10 µM, first compound 0.316 µM): 28.9% | viability, T/C (second compound 10 µM, first compound 1 µM): 19.3%

IC50 (second compound 0.00316 µM): < 0.316 nM | IC50 (second compound 0.01 µM): > 100 nM | IC50 (second compound 0.0316 µM): > 100 nM | IC50 (second compound 0.1 µM): > 100 nM | IC50 (second compound 0.316 µM): > 100 nM | IC50 (second compound 1 µM): > 100 nM
SMILES: Cn1ncnc1[C@H]1c2n[nH]c(=O)c3cc(F)cc(c23)N[C@@H]1c1ccc(F)cc1 + CNC(C)C(=O)NC1CN(S(=O)(=O)c2cccc(S(=O)(=O)N3CCC4CCC(C(=O)NC(c5ccccc5)c5ccccc5)N4C(=O)C(NC(=O)C(C)NC)C3)c2)CCC2CCC(C(=O)NC(c3ccccc3)c3ccccc3)N2C1=O
viability, T/C (second compound 0.00316 µM, first compound 0.000316 µM): 49.4% | viability, T/C (second compound 0.00316 µM, first compound 0.001 µM): 49.2% | viability, T/C (second compound 0.00316 µM, first compound 0.00316 µM): 46.2% | viability, T/C (second compound 0.00316 µM, first compound 0.01 µM): 47.6% | viability, T/C (second compound 0.00316 µM, first compound 0.0316 µM): 49.5% | viability, T/C (second compound 0.00316 µM, first compound 0.1 µM): 47.7% | viability, T/C (second compound 0.01 µM, first compound 0.000316 µM): 119% | viability, T/C (second compound 0.01 µM, first compound 0.001 µM): 92.3% | viability, T/C (second compound 0.01 µM, first compound 0.00316 µM): 97.3% | viability, T/C (second compound 0.01 µM, first compound 0.01 µM): 90.1% | viability, T/C (second compound 0.01 µM, first compound 0.0316 µM): 87.8% | viability, T/C (second compound 0.01 µM, first compound 0.1 µM): 85.5% | viability, T/C (second compound 0.0316 µM, first compound 0.000316 µM): 107% | viability, T/C (second compound 0.0316 µM, first compound 0.001 µM): 93.8% | viability, T/C [1]: 87.6% | viability, T/C [2]: 105% | viability, T/C [3]: 92% | viability, T/C [4]: 91% | viability, T/C (second compound 0.1 µM, first compound 0.000316 µM): 94.3% | viability, T/C (second compound 0.1 µM, first compound 0.001 µM): 106% | viability, T/C [5]: 112% | viability, T/C [6]: 97.6% | viability, T/C [7]: 84% | viability, T/C [8]: 91.7% | viability, T/C (second compound 0.316 µM, first compound 0.000316 µM): 103% | viability, T/C (second compound 0.316 µM, first compound 0.001 µM): 89.8% | viability, T/C [9]: 101% | viability, T/C [10]: 92.7% | viability, T/C [11]: 88.2% | viability, T/C [12]: 89% | viability, T/C (second compound 1 µM, first compound 0.000316 µM): 87.5% | viability, T/C (second compound 1 µM, first compound 0.001 µM): 90.7% | viability, T/C [13]: 94.4% | viability, T/C [14]: 83.7% | viability, T/C [15]: 89.7% | viability, T/C [16]: 86.3%
